Experimental data taken from ChEMBL document CHEMBL1250531, “Comparative nuclease and anti-cancer properties of the naturally occurring malabaricones” (Bioorg Med Chem, 2010).
Each block holds one molecule with its values, some of them ahead of it. Active and inactive are the calls of the source. No cut-off for these calls is given here.

What was measured:
Nucleic Acid [1] = experiment: Induction of Escherichia coli pBR322 DNA cleavage at 25 uM after 45 mins under anoxic condition by agarose gel electrophoresis in presence of copper; type: nucleic-acid assay
MCF7 [2] = experiment: Cytotoxicity against human MCF7 cells after 72 hrs by MTT assay; type: functional, cell-based; conditions: for IC50: MCF7, 72 h
Nucleic Acid [3] = experiment: Induction of Escherichia coli pBR322 DNA cleavage assessed as linear form of DNA at 25 uM after 45 mins by agarose gel electrophoresis in presence of copper; type: nucleic-acid assay
Nucleic Acid [4] = experiment: Induction of Escherichia coli pBR322 DNA cleavage assessed as open circular form of DNA at 25 uM after 45 mins by agarose gel electrophoresis in presence of copper; type: nucleic-acid assay
MCF7 [5] = experiment: Cytotoxicity against human MCF7 cells at 50 uM after 72 hrs by MTT assay relative to control; type: functional
Nucleic Acid [6] = experiment: Induction of Escherichia coli pBR322 DNA cleavage at 25 uM after 45 mins by agarose gel electrophoresis in presence of 100 uM of copper and 250 U/ml of superoxide dismutase; type: nucleic-acid assay
MCF7 [7] = experiment: Induction of apoptosis in human MCF7 cells assessed as DNA ladder formation after 24 hrs using ethidium bromide staining by agarose gel electrophoresis; type: functional, cell-based
Nucleic Acid [8] = experiment: Induction of Escherichia coli pBR322 DNA cleavage assessed as supercoiled form of DNA at 25 uM after 45 mins by agarose gel electrophoresis in presence of 100 uM of copper; type: nucleic-acid assay
[9] = Induction of hydrogen peroxide production at 100 uM after 20 mins by horse radish peroxidase assay relative to control in presence of 100 uM of copper; type: physicochemical
Nucleic Acid [10] = experiment: Induction of Escherichia coli pBR322 DNA cleavage at 25 uM after 45 mins by agarose gel electrophoresis in presence of 100 uM of copper and 250 uM of EDTA; type: nucleic-acid assay
Nucleic Acid [11] = experiment: Induction of Escherichia coli pBR322 DNA cleavage at 25 uM after 45 mins by agarose gel electrophoresis in presence of <100 uM of copper; type: nucleic-acid assay
Nucleic Acid [12] = experiment: Induction of Escherichia coli pBR322 DNA cleavage assessed as supercoiled form of DNA at 25 uM after 45 mins by agarose gel electrophoresis in presence of 100 uM of copper and neocuproine; type: nucleic-acid assay
MCF7 [13] = experiment: Induction of ROS production in human MCF7 cells after 3 hrs by DCFDA assay; type: functional, cell-based
Nucleic Acid [14] = experiment: Induction of Escherichia coli pBR322 DNA cleavage at 25 uM after 45 mins by agarose gel electrophoresis in presence of 100 uM of copper and 250 uM of neocuproine; type: nucleic-acid assay
MCF7 [15] = experiment: Cytotoxicity against human MCF7 cells assessed as cell viability at 5 uM after 72 hrs by MTT assay; type: functional; conditions: MCF7, 72 h, read-out: Activity
MCF7 [16] = experiment: Induction of ROS production in human MCF7 cells at 1 mM after 3 hrs by DCFDA assay relative to control; type: functional
[17] = Induction of superoxide radical production at 100 uM after 20 mins by NBT reduction assay relative to control in presence of 100 uM of copper; type: physicochemical
Nucleic Acid [18] = experiment: Induction of Escherichia coli pBR322 DNA cleavage assessed as open circular form of DNA at 25 uM after 30 mins by agarose gel electrophoresis in presence of 100 uM of copper; type: nucleic-acid assay
Nucleic Acid [19] = experiment: Induction of Escherichia coli pBR322 DNA cleavage at 25 uM after 45 mins by agarose gel electrophoresis in presence of 100 uM of copper and 500 mM of mannitol; type: nucleic-acid assay
Nucleic Acid [20] = experiment: Induction of Escherichia coli pBR322 DNA cleavage at 25 uM after 45 mins by agarose gel electrophoresis in presence of 100 uM of copper and 100 mM of mannitol; type: nucleic-acid assay
Nucleic Acid [21] = experiment: Induction of Escherichia coli pBR322 DNA cleavage at 25 uM after 45 mins by agarose gel electrophoresis; type: nucleic-acid assay
Calf thymus DNA [22] = experiment: Binding affinity to calf thymus DNA assessed as increase of ethidium bromide fluorescence quenching at 0.2 mM after 30 mins; type: nucleic-acid assay; conditions: Bos taurus
Nucleic Acid [23] = experiment: Induction of Escherichia coli pBR322 DNA cleavage at 25 uM after 45 mins by agarose gel electrophoresis in presence of 100 uM of copper and 500 U/ml of catalase; type: nucleic-acid assay
Nucleic Acid [24] = experiment: Induction of Escherichia coli pBR322 DNA cleavage at 25 uM after 45 mins by agarose gel electrophoresis in presence of 100 uM of copper and 100 mM of sodium azide; type: nucleic-acid assay
Calf thymus DNA [25] = experiment: Binding affinity to calf thymus DNA assessed as increase of viscosity of DNA solution at 0.2 mM after 30 mins; type: nucleic-acid assay; conditions: Bos taurus
Nucleic Acid [26] = experiment: Induction of Escherichia coli pBR322 DNA cleavage at 5 to 10 uM uM after 45 mins by agarose gel electrophoresis in presence of 100 uM of copper; type: nucleic-acid assay
Nucleic Acid [27] = experiment: Induction of Escherichia coli pBR322 DNA cleavage assessed as supercoiled form of DNA at 25 uM after 45 mins by agarose gel electrophoresis in presence of 100 uM of copper and catalase; type: nucleic-acid assay
[28] = Induction of copper chelation assessed as compound copper complex formation at 25 uM by absorption spectroscopic analysis; type: physicochemical
Nucleic Acid [29] = experiment: Induction of Escherichia coli pBR322 DNA cleavage at 25 uM after 45 mins by agarose gel electrophoresis in presence of 100 uM of copper and 100 mM of DMSO; type: nucleic-acid assay
MCF7 [30] = experiment: Induction of ROS production in human MCF7 cells at 10 uM after 3 hrs by DCFDA assay relative to control; type: functional
MCF7 [31] = experiment: Cytotoxicity against human MCF7 cells assessed as cell viability at 5 uM after 72 hrs by MTT assay pretreated with 1 mM of NAC relative to control; type: functional
MCF7 [32] = experiment: Induction of morphological changes in human MCF7 cells at 2.5 to 40 uM after 24 hrs by phase contrast microscopic analysis; type: functional, cell-based
MCF7 [33] = experiment: Induction of ROS production in human MCF7 cells at 15 uM after 3 hrs by DCFDA assay relative to control; type: functional
Nucleic Acid [34] = experiment: Induction of Escherichia coli pBR322 DNA cleavage at 25 uM after 45 mins by agarose gel electrophoresis in presence of 100 uM of copper and 500 U/ml of superoxide dismutase; type: nucleic-acid assay
Nucleic Acid [35] = experiment: Induction of Escherichia coli pBR322 DNA cleavage assessed as supercoiled form of DNA at 25 uM after 45 mins by agarose gel electrophoresis in presence of 100 uM of copper and sodium azide; type: nucleic-acid assay
Calf thymus DNA [36] = experiment: Binding affinity to calf thymus DNA at 50 uM after 5 mins by absorption spectroscopic analysis; type: nucleic-acid assay; conditions: Bos taurus
Nucleic Acid [37] = experiment: Induction of Escherichia coli pBR322 DNA cleavage assessed as supercoiled form of DNA at 25 uM after 45 mins by agarose gel electrophoresis in presence of 100 uM of copper and EDTA; type: nucleic-acid assay
MCF7 [38] = experiment: Cytotoxicity against human MCF7 cells at 100 uM after 72 hrs by MTT assay; type: functional, cell-based
MCF7 [39] = experiment: Ratio of compound IC50 to curcumin IC50 for human MCF7 cells; type: functional

Activity (Nucleic Acid [1]): inactive
Activity (Nucleic Acid [3]): inactive
Activity (Nucleic Acid [4]): Active
SMILES: O=C(CCCCCCCCc1ccc2c(c1)OCO2)c1c(O)cccc1O
IC50 (MCF7 [2]): 15.7 µM

Activity (Nucleic Acid [6]): Active
Activity (Nucleic Acid [8]): inactive
Activity [9]: 85%
Activity (Nucleic Acid [10]): inactive
Activity (Nucleic Acid [3]): Active
Activity (Nucleic Acid [11]): inactive
Activity (Nucleic Acid [12]): 98.5%
Activity (Nucleic Acid [4]): Active
Activity (Nucleic Acid [14]): inactive
Activity [17]: 42%
Activity (Nucleic Acid [18]): Active
Activity (Nucleic Acid [19]): Active
Activity (Nucleic Acid [20]): Active
Activity (Nucleic Acid [21]): inactive
Activity (Calf thymus DNA [22]): 24.4%
Activity (Nucleic Acid [23]): inactive
Activity (Nucleic Acid [24]): inactive
Activity (Calf thymus DNA [25]): Active
Activity (Nucleic Acid [26]): Active
Activity (Nucleic Acid [27]): 82%
Activity [28]: Active
Activity (Nucleic Acid [29]): Active
Activity (Nucleic Acid [34]): Active
Activity (Nucleic Acid [35]): 93.1%
Activity (Calf thymus DNA [36]): Active
Activity (Nucleic Acid [37]): 76.2%
SMILES: O=C(CCCCCCCCc1ccc(O)c(O)c1)c1c(O)cccc1O [MALABARICONE C]
Activity (MCF7 [7]): Dose-dependent effect
IC50 (MCF7 [2]): 5.26 µM
Activity (MCF7 [13]): Dose-dependent effect
viability at 5 µM (MCF7 [15]): 45.3%
Activity (MCF7 [16]): 71%
Activity (MCF7 [30]): 26%
Activity (MCF7 [31]): 75.32%
Activity (MCF7 [32]): Active
Activity (MCF7 [33]): 50%

Second part, the molecule before the results:

SMILES: O=C(CCCCCCCCc1ccccc1)c1c(O)cccc1O [MALABARICONE A]
Activity (MCF7 [5]): 12%
Activity (Nucleic Acid [1]): inactive
Activity (MCF7 [2]): Dose-dependent effect
Activity (Nucleic Acid [3]): Active
Activity (Nucleic Acid [4]): inactive

SMILES: C=CCc1ccc(O)c(O)c1
Activity (MCF7 [38]): inactive

SMILES: COc1cc(/C=C/C(=O)CC(=O)/C=C/c2ccc(O)c(OC)c2)ccc1O [CURCUMIN]
fold change (FC) (MCF7 [39]): 4
IC50 (MCF7 [2]): 24.5 µM

SMILES: O=C(CCCCCCCCc1ccc(O)cc1)c1c(O)cccc1O
Activity (Nucleic Acid [4]): Active
